Columns and labels:
platelet-rich plasma = assay: Aggregation of platelet-rich plasma; type: cell-based; conditions: Adenosin-diphosphate (5 μM)-induced; competitors each 1000 nM (FIG. 5)
Description: Platelet-rich plasma from fresh whole blood in sodium citrate was prepared by centrifugation of anticoagulated whole blood at 150 g for 20 min. After incubation of 0.45 ml of platelet rich plasma with different kininogen forms as indicated in the figure legends, and addition of 5 μl of […] at a final concentration of 5 μM, platelet aggregation was induced. Aggregation was quantitated by following the change in light transmission in a standardized aggregometer.
FIG. 5 Adenosin-diphosphate (5 μM)-induced aggregation of platelet-rich plasma was performed in the absence (−) or presence of GST-domain 5 (D5), or the peptides HK483 and HK486 (each 1000 nM). Platelet aggregation is presented as % of control.

[1] = biological target: T1, platelet αIIbβ3-integrin with vitronectin (Homo sapiens, UniProt P04004); assay: Binding of vitronectin to αIIbβ3-integrin; conditions: vitronectin 2 μg/ml, immobilized αIIbβ3-integrin 5 μg/ml, 10 μM ZnCl2 (FIG. 3)
T1 sequence (P04004 20-478): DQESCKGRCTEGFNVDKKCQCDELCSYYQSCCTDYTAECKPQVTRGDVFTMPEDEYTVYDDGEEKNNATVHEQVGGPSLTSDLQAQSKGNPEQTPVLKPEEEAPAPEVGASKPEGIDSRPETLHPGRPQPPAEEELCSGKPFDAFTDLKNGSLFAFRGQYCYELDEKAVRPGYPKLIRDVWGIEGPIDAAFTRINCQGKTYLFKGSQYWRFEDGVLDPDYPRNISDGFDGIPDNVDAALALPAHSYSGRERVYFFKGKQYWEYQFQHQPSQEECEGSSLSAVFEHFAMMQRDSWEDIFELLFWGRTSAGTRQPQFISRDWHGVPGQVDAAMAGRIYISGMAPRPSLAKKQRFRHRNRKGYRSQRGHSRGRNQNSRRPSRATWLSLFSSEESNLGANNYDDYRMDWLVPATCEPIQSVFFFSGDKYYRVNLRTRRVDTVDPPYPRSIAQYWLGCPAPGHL
Description: Microtiter plates were coated with 5 μg/ml αIIbβ3-integrin in Tris-buffered saline, pH 7.4, containing 1 mM CaCl2, 1 mM MgCl2 overnight at 4° C. and then blocked with 3% (w/v) bovine serum albumin. Binding of multimeric vitronectin (2 μg/ml) was performed in a final volume of 50 μl Tris-buffered saline containing 0.1% Tween-20, 0.3% (w/v) bovine serum albumin, 1 mM CaCl2 and 1 mM MgCl2 for 2 h at 22° C. in the absence or presence of 10 μM ZnCl2 and different kininogen forms. After the incubation period, monoclonal anti-vitronectin antibody VN7 at a concentration of 125 ng/ml was added, followed by addition of 1:1000 diluted peroxidase-conjugated goat anti-mouse immunoglobulins, respectively. Binding was quantitated as described above.
FIG. 3 The binding of vitronectin (2 μg/ml) to immobilized αIIbβ3-integrin (5 μg/ml) in the absence or presence of increasing concentrations of PAI-1 (filled squares), HKa (filled circles) or GST-domain 5 (open circles) in a buffer containing 10 μM ZnCl2 was carried out. Specific binding is presented as absorbance at 405 nm.

platelets = assay: Platelet adhesion onto vitronectin-coated plates; type: cell-based; conditions: competitors each 250 nM (FIG. 4)
Description: Multiwell plates were coated with 5 μg/ml multimeric vitronectin (dissolved in bicarbonate buffer, pH 9.6) and blocked with 3% (wt/vol) bovine serum albumin for 16 h at 4° C. Platelets stained with calcein acetoxymethyl ester (calcein-AM, 2.5 μM) (15 min at 37° C. in the dark) at a density of 5×10^6 cells suspended in 50 μl HEPES-Tyrode buffer containing 4 mM MgCl2 were added together with the respective competitors and incubated for 30 min at 37° C. After three washes with phosphate buffered saline, bound platelets were lysed with 100 μl of lysis buffer (150 mM NaCl, 10 mM Tris-CH1, pH 7.5, 5 mM EDTA, 1% (wt/vol) NP-40, 1 mM phenyl-methylsulfonyl fluoride, 20 μg/ml soybean trypsin inhibitor) and quantified in a fluorescent plate reader (excitation filter 492 nm, emission filter 535 nm).
FIG. 4. The adhesion of platelets to vitronectin in the absence (−) or presence of HK, HKa, GST-domain 5(D5), or the peptides HK483 and HK486 (each 250 nM) was carried out. Cell adhesion is presented as % of control.

[2] = biological target: T2, binding of PAI-1 to vitronectin in PAI-1-depleted extracellular matrix of endothelial cells (Homo sapiens, UniProt P04004); assay: Binding of PAI-1 to endothelial cell matrix; conditions: 2 μg/ml PAI-1; competitors each 500 nM; 10 μM ZnCl2 (FIG. 1)
T2 construct: The extracellular matrix of human umbilical vein endothelial cells was prepared according to standard procedures; endogenous in cells; host or cells: extracellular matrix of human umbilical vein endothelial cells, glycine-treated
T2 sequence (P04004 20-478): T1 sequence (P04004 20-478)
Description: The extracellular matrix of human umbilical vein endothelial cells was prepared according to standard procedures. PAI-1-depleted extracellular matrix was obtained by subsequent incubation with glycine (0.1 M, pH 2.3) for 2 h at 25° C. Wells were washed and blocked with phosphate buffered saline containing 3% (wt/vol) bovine serum albumin before proceeding with binding assays. Binding of PAI-1 (2 μg/ml) to the extracellular matrix was performed in a final volume of 50 μl Tris-buffered saline containing 0.1% Tween-20, 0.3% (wt/vol) bovine serum albumin for 2 h at 22° C. in the absence or presence of […] and different kininogen forms. Following the incubation period and a washing step, bound PAI-1 was quantitated by anti-human PAI-1 monoclonal antibody 12A4, followed by addition of 1:1000 diluted peroxidase-conjugated goat anti-mouse immunoglobulins. The conversion of the substrate 2,2,-azino-di(3-ethyl) benz-thiazoline sulphate was monitored at 405 nm in a Thermomax microtiter plate reader. […]
FIG. 1 The binding of 2 μg/ml PAI-1 to PAI-1-depleted (2 h glycine preincubation) extracellular matrix of cultured endothelial cells was tested in the absence (−)or presence of HK, HKa, GST-domain 5 (D5), the peptides HK483 and HK486 (each 500 nM) in a buffer containing 10 μM ZnCl2. Specific binding of PAI-1 is presented as absorbance at 405 nm.

PAI-1 = assay: Urokinase-mediated clot lysis in the presence of PAI-1; type: biochemical; conditions: not shown

In the case of “Gly-486-Lys-502 (GKHKNKGKKNGKHNGWK; UniProt P01042 504-520, looked up, fragment) [HK486, peptide derived from the carboxy-terminus of the domain 5 of HK]”, the “aggregation of platelet-rich plasma” value (platelet-rich plasma) is reported as “inhibit”, the “interaction of platelet αIIbβ3-integrin with vitronectin” value [1] is reported as “block” and the “αIIbβ3-integrin-mediated platelet adhesion to vitronectin” value (platelets) is reported as “block”. The “binding of PAI-1 to vitronectin in PAI-1-depleted (glycine-treated) extracellular matrix of endothelial cells” value [2] was “inhibited” and the “urokinase-mediated clot lysis, which is inhibited in the presence of PAI-1” value (PAI-1) was “enhance”.

Source: patent US20050058636A1, “Medicament against thrombotic diseases” (priority 2002, published 2005)
